The source of these data is US12171756B2, “NLRP3 modulators” (Innate Tumor Immunity, Inc., priority 2017, dated 2024).

For assay [1], the system named is IL-1β production in PMA-differentiated THP-1 cells. Kind of assay: Measurement of IL-1β production in PMA-differentiated THP-1 cells (ELISA, 4 hours). As to conditions: Homo sapiens, THP-1, human IL-1β production, assayed using one or more of the described procedures, read-out: NLRP3 hIL1B IC50. The assay is classed as cell-based, human. Summed up: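 THP-1 cells differentiated with PMA (10 μg/ml, 24 h), replated at 1×10^6 cells/ml in RPMI with 2% FBS and exposed to compounds (e.g. 0.1–100 μM, 1% DMSO final) for 4 hours. IL-1β in cell-free supernatant quantified by ELISA against vehicle control.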
On the technique in general: An ELISA detects its analyte on a solid surface through an enzyme-linked reagent.

Another assay has as its target T1, human TLR7 (Homo sapiens, UniProt Q9NYK1).
T1 construct: host or cells: human HEK-Blue cells (HEK293-derived) co-expressing TLR7 and an NF-kB/AP1-inducible SEAP reporter
T1 sequence (Q9NYK1 27-1049): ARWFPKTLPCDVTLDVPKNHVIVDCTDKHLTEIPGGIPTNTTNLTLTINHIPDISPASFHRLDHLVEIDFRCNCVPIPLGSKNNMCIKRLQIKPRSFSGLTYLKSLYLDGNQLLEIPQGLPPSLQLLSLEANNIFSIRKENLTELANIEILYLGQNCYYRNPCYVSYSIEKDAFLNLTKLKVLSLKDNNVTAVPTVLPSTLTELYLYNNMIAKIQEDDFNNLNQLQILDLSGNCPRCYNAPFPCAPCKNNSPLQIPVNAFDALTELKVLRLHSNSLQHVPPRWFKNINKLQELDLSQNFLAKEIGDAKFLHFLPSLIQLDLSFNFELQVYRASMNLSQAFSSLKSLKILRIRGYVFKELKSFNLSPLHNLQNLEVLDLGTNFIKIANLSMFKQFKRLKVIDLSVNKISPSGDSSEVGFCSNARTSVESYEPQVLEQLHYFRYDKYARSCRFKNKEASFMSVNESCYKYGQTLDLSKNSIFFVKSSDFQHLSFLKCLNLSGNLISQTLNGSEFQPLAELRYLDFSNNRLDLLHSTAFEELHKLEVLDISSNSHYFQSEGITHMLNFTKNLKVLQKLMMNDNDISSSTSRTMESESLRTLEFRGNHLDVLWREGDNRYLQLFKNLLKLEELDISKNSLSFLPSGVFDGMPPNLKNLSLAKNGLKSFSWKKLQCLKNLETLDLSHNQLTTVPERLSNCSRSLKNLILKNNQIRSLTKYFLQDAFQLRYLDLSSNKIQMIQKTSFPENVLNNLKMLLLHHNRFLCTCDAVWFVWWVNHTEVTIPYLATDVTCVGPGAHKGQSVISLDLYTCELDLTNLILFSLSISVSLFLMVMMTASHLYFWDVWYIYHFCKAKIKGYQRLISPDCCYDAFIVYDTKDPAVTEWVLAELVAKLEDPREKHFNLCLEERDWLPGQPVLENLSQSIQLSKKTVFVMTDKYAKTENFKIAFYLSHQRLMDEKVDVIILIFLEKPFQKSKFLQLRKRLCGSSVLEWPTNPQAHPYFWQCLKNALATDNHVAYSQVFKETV
Kind of assay: In vitro human TLR7 binding reporter assay (HEK-Blue, NF-kB/AP1-inducible SEAP). Type of assay: cell-based. The conditions noted are these: HEK-Blue human TLR7 SEAP reporter cells; activity range classes; read-out: TLR7 Agonist EC50. The gist of the method:
(§1)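 EC50s come from NF-kB/AP1-driven SEAP secretion in HEK-Blue cells expressing TLR7 or TLR8, measured with Quanti-Blue after an 18 h compound incubation. Maximal response is defined by a 50 μM reference standard.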

The next assay has as its target T2, human TLR8 (Homo sapiens, UniProt Q9NR97).
T2 construct: host or cells: human HEK-Blue cells (HEK293-derived) co-expressing TLR8 and an NF-kB/AP1-inducible SEAP reporter
T2 sequence (Q9NR97 27-1041): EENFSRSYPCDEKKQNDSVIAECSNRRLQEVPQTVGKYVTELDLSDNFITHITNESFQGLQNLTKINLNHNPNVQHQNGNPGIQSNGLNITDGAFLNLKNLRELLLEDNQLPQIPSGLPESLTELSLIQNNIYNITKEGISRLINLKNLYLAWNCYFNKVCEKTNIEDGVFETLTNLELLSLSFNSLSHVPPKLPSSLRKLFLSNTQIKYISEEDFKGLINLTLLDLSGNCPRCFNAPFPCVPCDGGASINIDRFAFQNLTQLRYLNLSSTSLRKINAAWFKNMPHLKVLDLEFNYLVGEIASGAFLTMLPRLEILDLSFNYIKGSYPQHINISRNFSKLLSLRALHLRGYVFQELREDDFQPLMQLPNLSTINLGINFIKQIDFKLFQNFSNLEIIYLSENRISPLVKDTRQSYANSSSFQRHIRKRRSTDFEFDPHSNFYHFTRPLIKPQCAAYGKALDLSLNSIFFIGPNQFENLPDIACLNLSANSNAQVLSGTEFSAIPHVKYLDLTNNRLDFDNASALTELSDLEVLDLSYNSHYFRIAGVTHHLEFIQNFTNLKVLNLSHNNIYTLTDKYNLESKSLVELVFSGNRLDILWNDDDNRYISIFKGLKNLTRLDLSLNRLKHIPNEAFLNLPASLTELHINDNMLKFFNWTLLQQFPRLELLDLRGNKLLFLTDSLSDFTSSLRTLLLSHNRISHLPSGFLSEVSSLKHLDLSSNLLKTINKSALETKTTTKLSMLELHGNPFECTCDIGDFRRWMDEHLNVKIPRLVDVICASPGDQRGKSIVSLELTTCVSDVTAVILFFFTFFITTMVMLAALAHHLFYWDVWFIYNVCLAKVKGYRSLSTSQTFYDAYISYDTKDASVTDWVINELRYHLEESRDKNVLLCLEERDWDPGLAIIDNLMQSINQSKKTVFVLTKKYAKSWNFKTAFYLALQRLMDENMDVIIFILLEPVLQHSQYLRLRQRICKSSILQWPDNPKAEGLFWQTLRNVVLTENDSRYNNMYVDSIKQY
Kind of assay: In vitro human TLR8 binding reporter assay (HEK-Blue, NF-kB/AP1-inducible SEAP). The assay is classed as cell-based. As to conditions: HEK-Blue human TLR8 SEAP reporter cells; activity range classes; read-out: TLR8 Agonist EC50. Summed up: as §1

As to `CN(C)c1cc(N)nc2cc(-c3ccn[nH]3)ccc12` [Compound 166], the IC50 in assay [1] came out at 0.56 µM. Further, the EC50 at human TLR7 and on human TLR8 was greater than 100 µM throughout.
As to `Nc1cc(-n2ccnc2)c2ccc(-c3ccn[nH]3)cc2n1` [Compound 167, 4-(1H-imidazol-1-yl)-7-(1H-pyrazol-5-yl)quinolin-2-amine], the IC50 in assay [1] came to 8.33 µM. For the same compound, the EC50 on human TLR7 and at human TLR8 was greater than 100 µM throughout.
In the case of `Nc1cc(NCCO)c2ccc(-c3cc[nH]n3)cc2n1` [Compound 169], the half-maximal inhibitory concentration (IC50) in assay [1] came to 1.37 µM. Moreover, the EC50 on human TLR7 and on human TLR8 was greater than 100 µM throughout.
On to `CCN(CC)CCNc1cc(N)nc2cc(-c3ccn[nH]3)ccc12` [Compound 170], for which the IC50 in assay [1] is 5.82 µM. The EC50 on human TLR7 and on human TLR8 was greater than 100 µM throughout.
For the compound `Nc1cc(OCCCCO)c2ccc(-c3ccn[nH]3)cc2n1` [Compound 172, 4-((2-amino-7-(1H-pyrazol-5-yl)quinolin-4-yl)oxy)butan-1-ol], in assay [1], the IC50 was found to be 0.41 µM. Besides, the EC50 at human TLR7 and at human TLR8 was greater than 100 µM in each case.
Consider `Nc1cc(NCCCO)c2ccc(-n3cccn3)cc2n1` [Compound 173, 3-((2-amino-7-(1H-pyrazol-1-yl)quinolin-4-yl)amino)propan-1-ol], for which the IC50 in assay [1] turned out to be 0.28 µM. The EC50 on human TLR7 and at human TLR8 was greater than 100 µM throughout.
Turning to `CNC(=O)CCNc1cc(N)nc2cc(-n3cccn3)ccc12` [Compound 174], the IC50 in assay [1] turned out to be 0.82 µM. For the same compound, the concentration giving a half-maximal response (EC50) on human TLR7 and at human TLR8 was greater than 100 µM in each case.
In the case of `Nc1cc(NCc2cccnc2)c2ccc(-n3cccn3)cc2n1` [Compound 175], in assay [1], the IC50 was 0.97 µM. Moreover, the EC50 at human TLR7 and at human TLR8 was greater than 100 µM each time.
With `CC(C)(O)CNc1cc(N)nc2cc(-n3cccn3)ccc12` [Compound 176], the concentration for half-maximal inhibition (IC50) in assay [1] came out at 0.7 µM. Besides, the EC50 on human TLR7 and at human TLR8 was greater than 100 µM in each case.
`CC(=O)NCCOc1cc(N)nc2cc(-n3cccn3)ccc12` [Compound 177, N-(2-((2-amino-7-(1H-pyrazol-1-yl)quinolin-4-yl)oxy)ethyl)acetamide]: in assay [1], the IC50 turned out to be 3.07 µM. Also, the EC50 on human TLR7 and at human TLR8 was greater than 100 µM throughout.
With `Nc1cc(OCCO)c2ccc(-c3ccn[nH]3)cc2n1` [Compound 178, 2-((2-amino-7-(1H-pyrazol-5-yl)quinolin-4-yl)oxy)ethan-1-ol], the IC50 in assay [1] turned out to be 0.7 µM. For the same compound, the EC50 on human TLR7 and on human TLR8 was greater than 100 µM each time.
`Nc1cc(OCCCO)c2ccc(-c3ccn[nH]3)cc2n1` [Compound 179]: the IC50 in assay [1] came out at 0.78 µM. In addition, the concentration giving a half-maximal response (EC50) on human TLR7 and on human TLR8 was greater than 100 µM in each case.
For `Nc1cc(OCCCCN2CCS(=O)(=O)CC2)c2ccc(-c3ccn[nH]3)cc2n1` [Compound 180], the IC50 in assay [1] is 9.72 µM. Moreover, the EC50 at human TLR7 and on human TLR8 was greater than 100 µM throughout.
Consider `CCCOc1cc(N)nc2cc(-c3ccn[nH]3)ccc12` [Compound 182], for which the IC50 in assay [1] is 1.14 µM. Besides, the EC50 on human TLR7 and on human TLR8 was greater than 100 µM in each case.
Consider `Nc1cc(OCC(=O)N2CCCC2)c2ccc(-c3ccn[nH]3)cc2n1` [Compound 183], for which the IC50 in assay [1] turned out to be 8.4 µM. Further, the EC50 at human TLR7 and on human TLR8 was greater than 100 µM throughout.
Consider `CCOCCOc1cc(N)nc2cc(-c3ccn[nH]3)ccc12` [Compound 185], for which the IC50 in assay [1] was 0.56 µM. In addition, the EC50 on human TLR7 and at human TLR8 was greater than 100 µM in each case.
For the compound `Nc1cc(OC2CCOCC2)c2ccc(-c3ccn[nH]3)cc2n1` [Compound 186], the IC50 in assay [1] is 1.08 µM. The EC50 at human TLR7 and on human TLR8 was greater than 100 µM each time.
As to `Nc1cc(OCC2CCOCC2)c2ccc(-c3ccn[nH]3)cc2n1` [Compound 187], in assay [1], the IC50 worked out at 0.85 µM. Further, the EC50 on human TLR7 and on human TLR8 was greater than 100 µM throughout.
On to `CC(=O)NCCOc1cc(N)nc2cc(-c3ccn[nH]3)ccc12` [Compound 188], for which, in assay [1], the IC50 came to 6.31 µM. Also, the EC50 on human TLR7 and on human TLR8 was greater than 100 µM in each case.
For `Nc1cc(OCc2ccccn2)c2ccc(-c3ccn[nH]3)cc2n1` [Compound 189], the 50% inhibitory concentration (IC50) in assay [1] stood at 0.39 µM. For the same compound, the concentration for a half-maximal effect (EC50) at human TLR7 and at human TLR8 was greater than 100 µM throughout.
Take `Nc1cc(OCc2cccnc2)c2ccc(-c3ccn[nH]3)cc2n1` [Compound 190]: the IC50 in assay [1] came out at 0.66 µM. The EC50 at human TLR7 and at human TLR8 was greater than 100 µM in each case.
As for `Nc1cc(O[C@H]2CC[C@H](O)CC2)c2ccc(-c3ccn[nH]3)cc2n1` [Compound 191], the IC50 in assay [1] was 0.63 µM. For the same compound, the EC50 on human TLR7 and at human TLR8 was greater than 100 µM in each case.
Consider `Nc1cc(OCC2(CO)CC2)c2ccc(-c3ccn[nH]3)cc2n1` [Compound 192], for which the IC50 in assay [1] was 0.63 µM. The EC50 on human TLR7 and at human TLR8 was greater than 100 µM each time.
Take `COCCCOc1cc(N)nc2cc(-c3ccn[nH]3)ccc12` [Compound 193]: the IC50 in assay [1] was found to be 1.69 µM. For the same compound, the EC50 at human TLR7 and at human TLR8 was greater than 100 µM in each case.
In the case of `CC(CO)(CO)COc1cc(N)nc2cc(-c3ccn[nH]3)ccc12` [Compound 194], the IC50 in assay [1] stood at 2.23 µM. Besides, the EC50 on human TLR7 and on human TLR8 was greater than 100 µM throughout.
As to `CC(C)(O)CCOc1cc(N)nc2cc(-c3ccn[nH]3)ccc12` [Compound 195], the IC50 in assay [1] is 0.93 µM. The EC50 at human TLR7 and at human TLR8 was greater than 100 µM in each case.
Take `Nc1cc(OCCCn2cccn2)c2ccc(-c3ccn[nH]3)cc2n1` [Compound 196]: the IC50 in assay [1] turned out to be 1.11 µM. In addition, the EC50 at human TLR7 and at human TLR8 was greater than 100 µM each time.
As for `Nc1cc(OCCN2CCNC2=O)c2ccc(-c3ccn[nH]3)cc2n1` [Compound 198], in assay [1], the half-inhibitory concentration (IC50) worked out at 11.4 µM. In addition, the EC50 on human TLR7 and at human TLR8 was greater than 100 µM throughout.
Take `Nc1cc(O[C@H]2CCNC2=O)c2ccc(-c3ccn[nH]3)cc2n1` [Compound 199]: the IC50 in assay [1] was determined as 13.3 µM. Further, the EC50 on human TLR7 and on human TLR8 was greater than 100 µM each time.

For orientation: IC50 means the midpoint of a concentration-inhibition curve. A word on the EC50: it is the concentration needed to bring the measured effect to its halfway point.
